From patent publication US10221426B2, “Constitutively active PYR/PYL receptor proteins for improving plant stress tolerance” (The Regents of the University of California, priority 2009, dated 2019)

Legend:
Type in all cases: cell-based
PYL4-HAB1 = biological target: T1, PYL4-HAB1 (Arabidopsis thaliana, UniProt O80920); experiment: Yeast two-hybrid BD-PYL4 / AD-HAB1 interaction; details: 10 μM
T1 construct: BD-PYR/PYL fusion proteins were constructed in the same manner as for BD-PYR1 above; expressed in transfected cells; host or cells: yeast (Y190, as for BD-PYR1)
T1 sequence (O80920 1-207): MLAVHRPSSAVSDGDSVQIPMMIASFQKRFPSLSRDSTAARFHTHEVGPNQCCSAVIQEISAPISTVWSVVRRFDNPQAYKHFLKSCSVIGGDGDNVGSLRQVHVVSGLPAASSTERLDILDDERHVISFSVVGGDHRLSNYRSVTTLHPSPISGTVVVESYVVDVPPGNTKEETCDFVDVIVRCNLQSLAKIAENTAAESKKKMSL
T1 sequence (Q9CAJ0 23-511 partner): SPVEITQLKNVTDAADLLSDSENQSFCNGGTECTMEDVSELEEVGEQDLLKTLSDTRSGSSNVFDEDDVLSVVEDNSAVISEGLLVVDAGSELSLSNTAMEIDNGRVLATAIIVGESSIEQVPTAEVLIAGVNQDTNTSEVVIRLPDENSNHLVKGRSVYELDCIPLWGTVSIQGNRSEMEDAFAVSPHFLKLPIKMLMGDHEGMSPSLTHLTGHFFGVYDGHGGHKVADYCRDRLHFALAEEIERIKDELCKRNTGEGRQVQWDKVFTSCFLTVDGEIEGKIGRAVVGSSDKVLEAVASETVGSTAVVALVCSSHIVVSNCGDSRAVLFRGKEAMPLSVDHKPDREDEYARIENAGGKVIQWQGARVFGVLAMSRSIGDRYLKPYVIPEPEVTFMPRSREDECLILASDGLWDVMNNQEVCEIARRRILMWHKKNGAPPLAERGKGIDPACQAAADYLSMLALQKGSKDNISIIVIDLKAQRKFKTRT
Protocol: (§1) Given that PYR1 is necessary for pyrabactin action and is a predicted ligand-binding protein, we hypothesized that pyrabactin agonizes ABA signaling by inducing a protein-protein interaction between PYR1 and a downstream effector. To test this, ˜2 million prey cDNA clones were screened against a PYR1 Y2H bait construct on media containing 10 μM pyrabactin. To create the PYR1 Y2H bait construct, the Pyr1 open reading frame was PCR amplified from genomic DNA and cloned to pGem-T easy vector (Promega). After sequence confirmation, the Pyr1 ORF was then cloned in-frame between EcoRI and SalI sites of the pBD-GAL4 Cam vector (Stratagene) and transformed into yeast strain Y190. For the screen, an etiolated seedling cDNA library (J. Kim, K., Harter, A., Theologis, Proc Natl Acad Sci USA 94, 11786 (Oct. 28, 1997)) (ABRC stock CD4-22) was used. The cDNA library was first converted from phage to plasmid DNA, yielding 7.6×10^7 transformants. Plasmid DNA prepared from library was then used to transform Y190 as described in the GAL4 Two-Hybrid system manual (Stratagene). For each screen, 40 μg of prey plasmid was transformed into 1 ml of competent Y190 cell harboring bait construct and then grown on SD agar plates lacking His, Leu, and Trp, but containing 15 mM 3-AT and 10 μM pyrabactin. After 4 days incubation at 30° C., well-grown colonies were rescued and interactions validated using filter lift assay or chloroform-agarose overlay method and X-Gal staining. This identified two pyrabactin-dependent hits which sequencing determined encoded cDNAs for the PP2C HAB1, a close relative of the well-characterized ABA response factor ABI1 (A. Saez et al., The Plant Journal 37, 354 (2004); N. Leonhardt et al., THE PLANT CELL 16, 596 (2004)). Next, Y2H strains expressing an AD-HAB1 fusion protein and a BD-PYR1 fusion protein were grown on plates and tested for interactions in response to various compounds, all at 10 μM except for epi-brassinolide (50 nM) and dimethyl sulfoxide (DMSO) (carrier solvent, 1%). […] Thus, PYR1 interacts with HAB1 in a (+)-ABA dependent fashion.
To see if ABA and pyrabactin responsiveness is unique to PYR1, we tested 11 of the 13 PYL proteins as described above, using Y2H strains expressing an AD-HAB1 fusion protein and a BD-PYR/PYL fusion protein (listed at the left of FIG. 3A). BD-PYR/PYL fusion proteins were constructed in the same manner as for BD-PYR1 above. […] Of these, only Pyr1 is highly transcribed in seeds, which likely explains why mutations in Pyr1 cause the seeds to be insensitive to pyrabactin. […] However the interactions of PYLs 5-12 with the PP2Cs are indicative that the entire protein family is likely to share a similar mechanism of action involving PP2C modulation, as we describe below. […]

PYR1-HAB1 = biological target: T2, PYR1-HAB1 (Arabidopsis thaliana, UniProt O49686); experiment: Yeast two-hybrid BD-PYR1 / AD-HAB1 interaction, X-gal stain; details: 10 μM, except epi-brassinolide (50 nM)
T2 construct: the Pyr1 open reading frame was PCR amplified from genomic DNA; expressed in transfected cells; host or cells: yeast strain Y190
T2 sequence (O49686 1-191): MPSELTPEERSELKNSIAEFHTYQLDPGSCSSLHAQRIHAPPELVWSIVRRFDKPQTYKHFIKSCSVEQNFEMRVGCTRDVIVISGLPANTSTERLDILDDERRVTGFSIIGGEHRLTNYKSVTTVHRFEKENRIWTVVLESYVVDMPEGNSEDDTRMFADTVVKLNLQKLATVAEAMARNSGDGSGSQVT
T2 sequence (Q9CAJ0 23-511 partner): T1 sequence (Q9CAJ0 23-511 partner)
Protocol: as §1

PYL3-HAB1 = biological target: T3, PYL3-HAB1 (Arabidopsis thaliana, UniProt Q9SSM7); experiment: Yeast two-hybrid BD-PYL3 / AD-HAB1 interaction; details: 10 μM
T3 construct: BD-PYR/PYL fusion proteins were constructed in the same manner as for BD-PYR1 above; expressed in transfected cells; host or cells: yeast (Y190, as for BD-PYR1)
T3 sequence (Q9SSM7 1-209): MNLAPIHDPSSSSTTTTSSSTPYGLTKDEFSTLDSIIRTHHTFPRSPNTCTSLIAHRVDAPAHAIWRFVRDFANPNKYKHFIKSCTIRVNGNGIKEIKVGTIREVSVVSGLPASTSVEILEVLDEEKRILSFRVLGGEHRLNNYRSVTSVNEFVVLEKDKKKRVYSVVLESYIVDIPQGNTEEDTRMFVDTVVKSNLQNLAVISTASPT
T3 sequence (Q9CAJ0 23-511 partner): T1 sequence (Q9CAJ0 23-511 partner)
Protocol: as §1
To see if ABA and pyrabactin responsiveness is unique to PYR1, we tested 11 of the 13 PYL proteins as described above, using Y2H strains expressing an AD-HAB1 fusion protein and a BD-PYR/PYL fusion protein (listed at the left of FIG. 3A). BD-PYR/PYL fusion proteins were constructed in the same manner as for BD-PYR1 above. […] Of these, only Pyr1 is highly transcribed in seeds, which likely explains why mutations in Pyr1 cause the seeds to be insensitive to pyrabactin. […] However the interactions of PYLs 5-12 with the PP2Cs are indicative that the entire protein family is likely to share a similar mechanism of action involving PP2C modulation, as we describe below. Thus, we conclude that entire family modulates ABA responses via PP2C interactions.
The yeast strains expressing PYR/PYL receptors and type 2 C protein phosphatases were also used to screen HPLC-fractionated plant extracts for the presence of endogenous compounds that activate PYL/PYL receptors PYR1, PYL2, PYL3, and/or PYL4. HPLC fractionation of extracts was used to identify compounds different from abscisic acid (the known agonist). […] Purification of the agonist was achieved via multiple rounds of chromatographic separation coupled to yeast two hybrid assays that informed the fractions to move forward at each step of the purification. The structure of the purified agonist was deduced by X-ray crystallography of crystalline purified agonist.

PYL1-HAB1 = biological target: T4, PYL1-HAB1 (Arabidopsis thaliana, UniProt Q8VZS8); experiment: Yeast two-hybrid BD-PYL1 / AD-HAB1 interaction, X-gal stain; details: 10 μM
T4 construct: BD-PYR/PYL fusion proteins were constructed in the same manner as for BD-PYR1 above; expressed in transfected cells; host or cells: yeast (Y190, as for BD-PYR1)
T4 sequence (Q8VZS8 1-221): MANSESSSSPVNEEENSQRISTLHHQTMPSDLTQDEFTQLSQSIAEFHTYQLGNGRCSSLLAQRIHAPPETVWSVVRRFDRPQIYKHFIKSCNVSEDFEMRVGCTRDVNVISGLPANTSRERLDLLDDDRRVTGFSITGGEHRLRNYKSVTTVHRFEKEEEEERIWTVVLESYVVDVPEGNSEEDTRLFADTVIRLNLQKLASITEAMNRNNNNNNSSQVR
T4 sequence (Q9CAJ0 23-511 partner): T1 sequence (Q9CAJ0 23-511 partner)
Protocol: Given that PYR1 is necessary for pyrabactin action and is a predicted ligand-binding protein, we hypothesized that pyrabactin agonizes ABA signaling by inducing a protein-protein interaction between PYR1 and a downstream effector. To test this, ˜2 million prey cDNA clones were screened against a PYR1 Y2H bait construct on media containing 10 μM pyrabactin. To create the PYR1 Y2H bait construct, the Pyr1 open reading frame was PCR amplified from genomic DNA and cloned to pGem-T easy vector (Promega). After sequence confirmation, the Pyr1 ORF was then cloned in-frame between EcoRI and SalI sites of the pBD-GAL4 Cam vector (Stratagene) and transformed into yeast strain Y190. For the screen, an etiolated seedling cDNA library (J. Kim, K., Harter, A., Theologis, Proc Natl Acad Sci USA 94, 11786 (Oct. 28, 1997)) (ABRC stock CD4-22) was used. The cDNA library was first converted from phage to plasmid DNA, yielding 7.6×10^7 transformants. Plasmid DNA prepared from library was then used to transform Y190 as described in the GAL4 Two-Hybrid system manual (Stratagene). […] This identified two pyrabactin-dependent hits which sequencing determined encoded cDNAs for the PP2C HAB1, a close relative of the well-characterized ABA response factor ABI1 (A. Saez et al., The Plant Journal 37, 354 (2004); N. Leonhardt et al., THE PLANT CELL 16, 596 (2004)). […]

SMILES	PYL4-HAB1 interaction by X-gal stain (PYL4-HAB1)	PYR1-HAB1 interaction by X-gal stain (PYR1-HAB1)	PYL3-HAB1 interaction by X-gal stain (PYL3-HAB1)	PYL1-HAB1 interaction by X-gal stain (PYL1-HAB1)
CC1=CC(=O)CC(C)(C)C1(O)/C=C/C(C)=C\C(=O)O (single isomer, unassigned; (+)) [(+)-ABA]	respond	strong interactions	respond	
CC1=CC(=O)CC(C)(C)[C@@]1(O)/C=C/C(C)=C\C(=O)O [ABA, Abscisic acid]	interact with HAB1 in an ABA-stimulated manner		interact with HAB1 in an ABA-stimulated manner	interact with HAB1 in an ABA-stimulated manner
O=S(=O)(NCc1ccccn1)c1ccc(Br)c2ccccc12 [pyrabactin]		promotes interactions	promotes interactions	promotes interactions
